Source: article PMC8282797, “Strictly regulated agonist-dependent activation of AMPA-R is the key characteristic of TAK-653 for robust synaptic responses and cognitive improvement” (Scientific Reports, 2021)

Columns and labels:
[1] = tested on: rGluA1i; test: Ca2+ influx assay in rGluA1i CHO cells (species difference); type: cell-based, rat; conditions: 3 mM glutamate
Protocol: Ca^2+ influx assays using human GluA1/flip and human stargazin co-expressing CHO cells plated at 3 × 10^4 cells/well in 96-well Black Clear plates (Corning Incorporated, Corning, NY) were performed as previously described, with some modifications. For evaluation of the species difference, rat GluA1/flip expressing CHO cells were plated. For mutant channels, the human GluA1i S743A mutant was generated using the In-Fusion HD Cloning Kit (Takara Bio Inc., Kusatsu, Japan) according to the manufacturer's protocol and transiently introduced to CHO cells by Gene Pulser II Electroporation System (Bio-Rad Laboratories, Inc., Hercules, CA). Relative increases of intracellular Ca^2+ levels were monitored for 3 min with a fluorometric imaging plate reader (CellLux, Perkin Elmer Life and Analytical Sciences, Inc., Shelton, CT). […]
Human GluA1/flip and human stargazin co-expressing CHO cells were plated at 3×10^4 cells/well in 96-well Black Clear plate (Corning Incorporated, Corning, NY). […] Relative increases of intracellular Ca^2+ levels by compounds in the presence and absence of 3 mM L-glutamate were monitored for 3 min by fluorometric imaging plate reader (CellLux, Perkin Elmer Life and Analytical Sciences, Inc., Shelton, CT). Activity of compound was defined as integration value of fluorescence value of each detection point. […] EC50 values were calculated by logistic regression analysis.

[2] = tested on: GluA1-4i and TARP γ-2 or GluA1-4o and TARP γ-2; test: Ca2+ influx assay, AMPA-R subunit selectivity; type: cell-based, human
Protocol: Human GluA1/flip and human stargazin co-expressing CHO cells were plated at 3×10^4 cells/well in 96-well Black Clear plate (Corning Incorporated, Corning, NY). For subunit selectivity study, human AMPA-Rs (GluA1-4i, GluA1-4o and GluA1i mutants) and human TARPs γ2 co-expressing CHO cells were plated. For evaluation of the species difference, rat GluA1/flip expressing CHO cells were plated. For mutant channels, Human GluA1i S743A mutant was generated by In-Fusion HD Cloning Kit (Takara Bio Inc., Kusatsu, Japan) according to manufacturer's protocol. Each hGluA1i mutant vector was transiently introduced to CHO cells by Gene Pulser II Electroporation System (Bio-Rad Laboratories, Inc., Hercules, CA) and incubated for 6 h in 5% CO2 at 37°C. Then, cells were harvested and plated. These cells were seeded at 3×10^4 cells/well in 96-well Black Clear plate and incubated for 24 h in 5% CO2 at 37°C. […] Relative increases of intracellular Ca^2+ levels by compounds in the presence and absence of 3 mM L-glutamate were monitored for 3 min by fluorometric imaging plate reader (CellLux, Perkin Elmer Life and Analytical Sciences, Inc., Shelton, CT). Activity of compound was defined as integration value of fluorescence value of each detection point. […] EC50 values were calculated by logistic regression analysis. […]

[3] = biological target: GluA2o LBD (Homo sapiens, UniProt P42262); test: SPA displacement of [3H]-HBT1 from His-tagged GluA2o LBD; conditions: 40 nM [3H]-HBT1, 100 μM glutamate, read-out: IC50, inhibition of binding between [3H]-HBT1 and His-LBD
GluA2o LBD, sequence (P42262 with tags, fused parts or gaps): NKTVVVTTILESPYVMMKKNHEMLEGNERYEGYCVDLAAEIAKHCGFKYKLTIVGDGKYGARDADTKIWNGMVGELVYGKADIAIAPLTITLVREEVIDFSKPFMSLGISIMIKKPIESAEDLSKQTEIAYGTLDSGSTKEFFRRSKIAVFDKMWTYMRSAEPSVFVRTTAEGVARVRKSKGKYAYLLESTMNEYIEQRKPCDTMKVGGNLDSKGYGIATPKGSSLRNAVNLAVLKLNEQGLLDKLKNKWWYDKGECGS
Excerpt: We previously reported that structural interference at Ser750 in the channel-closed state of GluA2o LBD might be involved in the molecular mechanisms underlying the lower agonistic effect of AMPA-R potentiators with dihydropyridothiadiazine 2,2-dioxide derivatives and discovered TAK-137, 9-(4-phenoxyphenyl)-3,4-dihydropyrido[2,1-c][1,2,4]thiadiazine 2,2-dioxide (Fig. 1A)[16]. […] TAK-653 bound to the intradimer interface formed by the ligand binding core (Fig. 1B). […] Binding affinity of TAK-653 to the GluA2o LBD was measured by a scintillation proximity assay (SPA) using [^3H]-HBT1, a radio-labeled LBD-binding AMPA-R potentiator, and a His-tagged GluA2o LBD protein (His-LBD)[21]. […] Binding of [^3H]-TAK-653 to His-LBD was also measured by SPA.
The SPA assays were performed as previously described, with some modifications. […] Radioactivity derived from the bound radio ligand was measured using a microplate scintillation counter (TopCount NXT, PerkinElmer Inc.).

CC1=CN2CCS(=O)(=O)N=C2C(c2ccc(OC3CCCCC3)cc2)=N1 [TAK-653, 9-[4-(Cyclohexyloxy)phenyl]-7-methyl-3,4-dihydropyrazino[2,1-c][1,2,4]thiadiazine 2,2-dioxide]
Fold difference in the EC50 value between rat and human receptors [1]: 1.1 fold | Subunit selectivity for homomeric AMPA-R [2]: did not show prominent subunit selectivity | IC50 [3]: 260 nM
